In paper PMC6976883, “Detection in two hospitals of transferable ceftazidime-avibactam resistance in Klebsiella pneumoniae due to a novel VEB β-lactamase variant with a Lys234Arg substitution, Greece, 2019” (Eurosurveillance, 2020) one finds IC50 data, which are given here for one molecule.

The structures appear in SMILES notation.

The target of the experiment is T1, VEB-1 (Escherichia coli, UniProt Q7BVU7).
T1 construct: gene blaVEB; natural plasmid-encoded enzyme, no tags; crude cell extracts of E. coli K12 26R793 transconjugants TrcS-2865 (VEB-1) and TrcE-1037 (VEB-25, GenBank MN862699), which also contain OXA-10 and TEM-1
As to the kind of experiment: spectrophotometric inhibition of ceftazidime hydrolysis. The experiment is classed as biochemical.

Molecule `NC(=O)[C@@H]1CC[C@@H]2CN1C(=O)N2OS(=O)(=O)O` [avibactam] came in with an IC50 of 0.1 nM.
